Measurements from patent EP0184291B1, “Polyether antibiotic A80190” (ELI LILLY AND COMPANY, priority 1984, dated 1986).
≈ marks a conversion by molar mass, not a printed value.

Tests used:
[1] = tested on: Caenorhabditis elegans; test: Anthelmintic activity; format: in vivo; conditions: read-out: active at levels as low as
Text: The A80190 compounds are also anthelmintic agents. For example, A80190 is active against Caenorhabditis elegans at levels as low as 20 ppm.

[2] = tested on: Candida albicans; test: Disc-diffusion method; format: cell-based; conditions: 6-mm pads dipped in 1 mg of compound per ml, read-out: Zone of Inhibition (mm diameter)
Experimental: (§1) The inhibitory activity of A80190 is illustrated in Table VI. Activity was measured by the conventional disc-diffusion method (6-mm pads were dipped in solutions containing 1 mg of compound per ml of solution; pads were placed on agar plates seeded with test organism).

[3] = tested on: Micrococcus luteus; test: Disc-diffusion method; format: cell-based; conditions: 6-mm pads dipped in 1 mg of compound per ml, read-out: Zone of Inhibition (mm diameter)
Experimental: as §1

[4] = tested on: Staphylococcus aureus; test: Disc-diffusion method; format: cell-based; conditions: 6-mm pads dipped in 1 mg of compound per ml, read-out: Zone of Inhibition (mm diameter)
Experimental: as §1

[5] = tested on: Mycobacterium avium; test: Disc-diffusion method; format: cell-based; conditions: 6-mm pads dipped in 1 mg of compound per ml, read-out: Zone of Inhibition (mm diameter)
Experimental: as §1

[6] = tested on: Neurospora crassa; test: Disc-diffusion method; format: cell-based; conditions: 6-mm pads dipped in 1 mg of compound per ml, read-out: Zone of Inhibition (mm diameter)
Experimental: as §1

[7] = tested on: Saccharomyces pastorianus; test: Disc-diffusion method; format: cell-based; conditions: 6-mm pads dipped in 1 mg of compound per ml, read-out: Zone of Inhibition (mm diameter)
Experimental: as §1

[8] = tested on: Bacillus subtilis; test: Disc-diffusion method; format: cell-based; conditions: 6-mm pads dipped in 1 mg of compound per ml, read-out: Zone of Inhibition (mm diameter)
Experimental: as §1

[9] = tested on: Eimeria tenella; test: In vitro tissue culture anticoccidial screen; format: cell-based; conditions: Concentration 5 µg/ml
Text: Anticoccidial activity is an important property of the A80190 compounds. Table VIII summarizes the results of an in vitro tissue culture screen of A-80190 compounds vs. Eimeria tenella.

[10] = Solubility; format: physicochemical
[11] = tested on: Treponema hyodysenteriae; test: Growth inhibition, swine dysentery agent; format: cell-based; conditions: Brachyspira hyodysenteriae; read-out: inhibits the growth at levels as low as
Text: In another aspect the A80190 compounds are useful in the treatment of swine dysentery. A80190 inhibits the growth of Treponema hyodysenteriae, a causative agent of swine dysentery, at levels as low as 0.39 mcg/ml. A preferred method of administration to swine is by incorporation of an appropriate amount of an A80190 compound into the feed ration or drinking water. An appropriate amount will relate to whether the treatment is to prevent or to cure infection. Usually, a lower concentration of active compound is needed to prevent infection than is required for to eliminate infection in animals already afflicted. In general, amounts in the range of from about 20 to about 100 grams of A80190 compound per ton of feed are effective to prevent infection. Amounts in the range of from about 100 to about 500 g of A80190 compound per ton of feed are recommended for treating swine suffering from dysentery. These amounts provide from about 1 to about 5 mg/kg of body weight per day (prophylactic treatment) or from about 5 to about 25 mg/kg of body weight per day (treatment of infected animal). When added to the drinking water, amounts of from about 0.04 to about 0.2 g (prophylactic) or from about 0.2 to about 1 g (therapeutic) of A80190 compound per gallon of water are recommended.

Question: Which results are given for `CC[C@@H](O)[C@]1(C)C[C@H](C)[C@@](O)([C@H]2C[C@H](C)[C@H]([C@]3(C)C[C@@H](O[C@H]4CC[C@H](OC)[C@@H](C)O4)[C@H]([C@@H]4CC[C@@]5(O[C@H]([C@@H](C)[C@@H](OC)[C@H](C)C(=O)O)[C@H](C)[C@@H](OC)[C@H]5C)O4)O3)O2)O1` [Example A80190]?
Answer: minimal effective concentration [1]: 20 µg/mL; zone of inhibition at 1000 µg/mL [2]: 14 mm; zone of inhibition at 1000 µg/mL [3]: 20 mm; zone of inhibition at 1000 µg/mL [4]: 17 mm; zone of inhibition at 1000 µg/mL [5]: 21 mm; zone of inhibition at 1000 µg/mL [6]: 14 mm; zone of inhibition at 1000 µg/mL [7]: 10 mm; zone of inhibition at 1000 µg/mL [8]: 23 mm; Activity vs. Eimeria tenella In Vitro [9]: C^a; Solubility ([10]; lower alcohols such as methanol, ketones such as acetone, esters such as ethyl acetate, halogenated hydrocarbons such as chloroform, diethyl ether, benzene, toluene, warm hexane): soluble; Solubility ([10]; water): Insoluble; MIC [11]: 0.39 µg/mL (≈ 0.47 µM)
